{
  "source": "patent US20160032401A1",
  "about": "“Glycine, Mitochondrial One-Carbon Metabolism, and Cancer” (THE GENERAL HOSPITAL CORPORATION, priority 2013, published 2016)",
  "key": {"[1]": {"tested_on": "10 additional primary cancer cell lines from the NCI-60 panel", "conditions": "FIG. 1G", "procedure": "(§3) For lentiviral infection, 100,000 cells were seeded in a 6-well dish in 2 mL medium containing 8 μg/ml Polybrene and 100 μl viral supernatant added. Plates were centrifuged at 800×g for 30 minutes at 37° C., and the medium replaced. Twenty-four hours later, cells were selected for infection by the addition of 2 μg/ml puromycin. […] Cells were passaged for >10 cell divisions to ensure stable expression of the shRNA construct. For assessment of SHMT2 knockdown, mRNA was isolated from cells using RNeasy kit (Qiagen), and qRT-PCR was performed for SHMT2 and HPRT1 using the Taqman assay (Applied Biosystems assay ID Hs00193658_m1* and Hs01003267_m1*, respectively), according to manufacturer's instructions. For experiments using A498 and LOX IMVI, cells were infected with either sh1-4 or shCtrl lentivirus and stable expressing cells selected as above. For experiments utilizing NCI-H226, HS-578T, TK10, EKVX, OVCAR-8, U251, A549, HT29, NCI-460 and HCT-116, cells were infected with either sh4 or shCtrl lentivirus and stable expressing cells selected as above. […] For all experiments, cells were counted and cell counts expressed as fold change over time. […] Cells were counted at regular time intervals as described above. All experiments were performed using at least 10 independent cell cultures."}, "LOX IMVI cells": {"tested_on": "LOX IMVI cells", "experiment": "Rescue of SHMT2-silenced LOX IMVI cells grown in the absence of glycine", "format": "cell-based, human", "conditions": "supplement 140 μM", "procedure": "as §3"}, "[2]": {"target": "T1, MTHFD2 C145S/C166S mutant (Homo sapiens, UniProt P13995, C145S/C166S)", "T1 construct": "12 amino acids were removed from the unstructured C-terminus of the protein, and a 6-histidine tag added to facilitate purification; 6-histidine tag (C); made in house", "T1 sequence (P13995 with tags, fused parts or gaps C145S/C166S)": "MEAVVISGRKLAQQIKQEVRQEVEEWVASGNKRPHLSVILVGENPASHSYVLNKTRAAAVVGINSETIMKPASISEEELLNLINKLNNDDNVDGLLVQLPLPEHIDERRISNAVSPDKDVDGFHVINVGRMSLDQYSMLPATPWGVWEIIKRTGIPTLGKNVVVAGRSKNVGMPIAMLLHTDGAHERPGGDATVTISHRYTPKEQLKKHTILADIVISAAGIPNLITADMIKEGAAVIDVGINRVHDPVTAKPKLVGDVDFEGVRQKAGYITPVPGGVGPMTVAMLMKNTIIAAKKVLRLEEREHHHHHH", "experiment": "Same activity assay on MTHFD2 C145/C166 double mutant", "format": "biochemical", "method": "(§1) The NAD-dependent methylenetetrahydrofolate dehydrogenase/cyclohydrolase activity assay employed in this microtiter well based screen is based on previously published enzymatic assays, with modifications as listed below. The assay was initially reported by Scrimgeour and Huennekens, Biochem. Biophys. Res. Commun. 1960, 2:230-233 and subsequently by Mejia and MacKenzie, The Journal of biological chemistry. 1985; 260:14616-14620). The assay was performed as described with slight modifications (reported assay concentrations in the Mejia et al. assay are provided in brackets below). The modified assay utilized 50 ng of recombinant MTHFD2 protein produced as described in Example 11 per well in 384 well format. In addition, the present assay utilized 30 […], at pH 7.5 (7.3), with 150 uM formaldehyde (2.5 mM), 150 uM tetrahydrofolate (250 uM) and 6 mM MgCl (5 mM). No 2-mercaptoethanol or reducing agents were used in the present assay, which is crucial for detection of cysteine modifying compounds as potential enzyme inhibitors. The assay employed for high-throughput screening for chemical inhibitors used the final endpoint measure of formation of 5,10-methenyltetrahydrofolate by spectrophotometric absorbance at 340 nm. […]"}, "MTHFD2 C145S mutant": {"target": "T2, MTHFD2 C145S mutant (Homo sapiens, UniProt P13995, C145S)", "T2 construct": "12 amino acids were removed from the unstructured C-terminus of the protein, and a 6-histidine tag added to facilitate purification; 6-histidine tag (C); made in house", "T2 sequence (P13995 with tags, fused parts or gaps C145S)": "T1 sequence (P13995 with tags, fused parts or gaps C145S/C166S) with S132C", "experiment": "Same activity assay on MTHFD2 C145 cysteine to serine mutant", "format": "biochemical", "method": "as §1"}, "MTHFD2 C166S mutant": {"target": "T3, MTHFD2 C166S mutant (Homo sapiens, UniProt P13995, C166S)", "T3 construct": "12 amino acids were removed from the unstructured C-terminus of the protein, and a 6-histidine tag added to facilitate purification; 6-histidine tag (C); made in house", "T3 sequence (P13995 with tags, fused parts or gaps C166S)": "T1 sequence (P13995 with tags, fused parts or gaps C145S/C166S) with S111C", "experiment": "Same activity assay on MTHFD2 C166 cysteine to serine mutant", "format": "biochemical", "method": "as §1"}, "[3]": {"target": "T4, recombinant MTHFD2 protein (human, wild type) (Homo sapiens, UniProt P13995)", "T4 construct": "12 amino acids were removed from the unstructured C-terminus of the protein, and a 6-histidine tag added to facilitate purification; 6-histidine tag (C); made in house; host or cells: E. coli One Shot BL21 Star (DE3), pET-30a(+)", "T4 sequence (P13995 with tags, fused parts or gaps)": "T1 sequence (P13995 with tags, fused parts or gaps C145S/C166S) with S111C, S132C", "experiment": "NAD-dependent methylenetetrahydrofolate dehydrogenase/cyclohydrolase activity assay, 384 well, no reducing agents", "format": "biochemical", "conditions": "for inhibition of MTHFD2 enzyme in high throughput screen: screen of about 5,100 small molecules, biological duplicate, no reducing agents", "method": "(§2) The NAD-dependent methylenetetrahydrofolate dehydrogenase/cyclohydrolase activity assay employed in this microtiter well based screen is based on previously published enzymatic assays, with modifications as listed below. The assay was initially reported by Scrimgeour and Huennekens, Biochem. Biophys. Res. Commun. 1960, 2:230-233 and subsequently by Mejia and MacKenzie, The Journal of biological chemistry. 1985; 260:14616-14620). The assay was performed as described with slight modifications (reported assay concentrations in the Mejia et al. assay are provided in brackets below). The modified assay utilized 50 ng of recombinant MTHFD2 protein produced as described in Example 11 per well in 384 well format. In addition, the present assay utilized 30 […], at pH 7.5 (7.3), with 150 uM formaldehyde (2.5 mM), 150 uM tetrahydrofolate (250 uM) and 6 mM MgCl (5 mM). No 2-mercaptoethanol or reducing agents were used in the present assay, which is crucial for detection of cysteine modifying compounds as potential enzyme inhibitors. The assay employed for high-throughput screening for chemical inhibitors used the final endpoint measure of formation of 5,10-methenyltetrahydrofolate by spectrophotometric absorbance at 340 nm.\nThe assay described in Example 12 was used to screen a library of about 5,100 small molecule agents in the Prestwick chemical library, Known Bioactives Library and Library of Pharmacologically Active Compounds, in biological duplicate. […] Several of the high scoring inhibitors are known cysteine modifiers that could in principle inhibit enzyme activity by modification of cysteine residues.\nThree mutant MTHFD2 constructs were generated with Agilent QuikChange Lightening, with cysteine to serine mutations at C145, C166 or both C145/C166. These mutants were retested with three of the compounds identified in the secondary screen (6-hydroxy-DL-DOPA, Celastrol, and Ebselen). […] Given the identification of these cysteine residues, additional structure/medicinal chemistry may be employed to specifically design small molecules that take advantage of these cysteine residues and inhibit MTHFD2 with greater selectivity."}, "MTHFD2 [4]": {"target": "T5, MTHFD2 (Homo sapiens, UniProt P13995)", "T5 construct": "12 amino acids were removed from the unstructured C-terminus of the protein, and a 6-histidine tag added to facilitate purification; 6-histidine tag (C); made in house; host or cells: E. coli One Shot BL21 Star (DE3), pET-30a(+)", "T5 sequence (P13995 with tags, fused parts or gaps)": "T1 sequence (P13995 with tags, fused parts or gaps C145S/C166S) with S111C, S132C", "experiment": "Enzyme kinetics of recombinant MTHFD2 in the modified 384 well assay", "format": "biochemical", "conditions": "recombinant MTHFD2, 384 well plate format; read-out: Km, Measured", "method": "as §2"}, "MTHFD2 [5]": {"target": "T5, MTHFD2", "conditions": "published values (Yang and MacKenzie 1993); cited from earlier work"}, "NCI-60 cancer cell lines": {"tested_on": "NCI-60 cancer cell lines", "experiment": "Association between glycine consumption and compound sensitivity (GI50) across the 60 cell lines", "format": "cell-based, human", "conditions": "NCI public data, FIG. 3", "from_the_text": "Compound sensitivity data for glutathione biosynthesis and de novo purine biosynthesis inhibitors was obtained from the NCI data repository (October 2009 release). Compound sensitivity was quantified using the GI50 measure (Shoemaker, Nat Rev Cancer. 2006; 6:813-823), defined as the compound concentration inhibiting cell growth by 50%. For those compounds in which multiple experiments with different concentration ranges were available, the experiment with the least degree of saturation was used.\nGiven the observation that glycine consumption is correlated to rapid cancer cell proliferation (see Examples 1-5, above), the present inventors sought to determine whether glycine consumption predicts sensitivity to particular chemotherapeutic agents. The association between glycine update and sensitivity to 3851 annotated small molecules (data provided to the public by NCI) was examined bioinformatically across the 60 cell lines."}},
  "note": "Numbering of substitutions follows the chain as printed. Like-named read-outs stand apart in the source and are kept apart here.",
  "data": [
    {"compound": "NCC(=O)O", "note": "[glycine]", "values": [
      {"measurement": "rescue by addition of extracellular glycine in rapidly proliferating SHMT2-silenced cancer cells", "setting": "[1]", "value": "rescued"},
      {"measurement": "rescue of proliferation of SHMT2-silenced LOX IMVI cells", "setting": "LOX IMVI cells", "value": "rescued"}
    ]},
    {"compound": "NC(Cc1cc(O)c(O)cc1O)C(=O)O", "note": "(stereo not drawn) [6-hydroxy-DL DOPA]", "values": [
      {"measurement": "inhibition of C145/C166 double mutant MTHFD2", "setting": "[2]", "value": "inhibited"},
      {"measurement": "inhibition of C145 mutant MTHFD2", "setting": "MTHFD2 C145S mutant", "value": "inhibited"},
      {"measurement": "inhibition of C166 mutant MTHFD2", "setting": "MTHFD2 C166S mutant", "value": "inhibited"},
      {"measurement": "inhibition of wild type MTHFD2 with addition of the reducing agent DTT", "setting": "[3]; plus DTT", "value": "not antagonized"},
      {"measurement": "inhibition of wild type MTHFD2", "setting": "[3]; retest with mutants, FIGS. 9A-C", "value": "inhibited"},
      {"measurement": "inhibition of MTHFD2 enzyme in high throughput screen", "setting": "[3]", "value": "inhibit the enzyme"}
    ]},
    {"compound": "Clc1ccc(C(c2ccc(Cl)cc2)n2cc[n+](CC(OCc3ccc(Cl)cc3Cl)c3ccc(Cl)cc3Cl)c2)cc1", "note": "(centres unmarked) [calmidazolium chloride]", "values": [
      {"measurement": "inhibition of MTHFD2 enzyme in high throughput screen", "setting": "[3]", "value": "inhibit the enzyme"}
    ]},
    {"compound": "Nc1nc2c(c(=O)[nH]1)N1CN(c3ccc(C(=O)N[C@@H](CCC(=O)O)C(=O)O)cc3)CC1CN2", "note": "(some centres unmarked) [5,10 CH2—THF]", "values": [
      {"measurement": "Km", "setting": "MTHFD2 [4]", "value": 4.1, "unit": "µM"},
      {"measurement": "Km", "setting": "MTHFD2 [5]", "value": 6.7, "unit": "µM"}
    ]},
    {"compound": "NC(=O)c1ccc[n+]([C@@H]2O[C@H](COP(=O)([O-])OP(=O)(O)OC[C@H]3O[C@@H](n4cnc5c(N)ncnc54)[C@H](O)[C@@H]3O)[C@@H](O)[C@H]2O)c1", "note": "[NAD+]", "values": [
      {"measurement": "Km", "setting": "MTHFD2 [4]", "value": 51.5, "unit": "µM"},
      {"measurement": "Km", "setting": "MTHFD2 [5]", "value": 56.4, "unit": "µM"}
    ]},
    {"compound": "O=CO", "note": "[formate]", "values": [
      {"measurement": "rescue of proliferation of SHMT2-silenced LOX IMVI cells", "setting": "LOX IMVI cells", "value": "failed to rescue"}
    ]},
    {"compound": "NC(=O)CI", "note": "[iodoacetamide]", "values": [
      {"measurement": "inhibition of MTHFD2 enzyme in high throughput screen", "setting": "[3]", "value": "inhibit the enzyme"}
    ]},
    {"compound": "O=C1Nc2ccc(I)cc2/C1=C/c1cc(Br)c(O)c(Br)c1", "note": "[GW5074]", "values": [
      {"measurement": "inhibition of MTHFD2 enzyme in high throughput screen", "setting": "[3]", "value": "inhibit the enzyme"}
    ]},
    {"compound": "C=CC1=C(C)c2cc3[nH]c(cc4nc(cc5[nH]c(cc1n2)c(C)c5CCC(=O)O)C(CCC(=O)O)=C4C)c(C)c3C=C", "note": "[protoporphyrin IX disodium]", "values": [
      {"measurement": "inhibition of MTHFD2 enzyme in high throughput screen", "setting": "[3]", "value": "inhibit the enzyme"}
    ]},
    {"compound": "O=c1[nH]cc(F)c(=O)[nH]1", "note": "[5-fluorouracil]", "values": [
      {"measurement": "sensitivity of glycine consuming cells to the agent (correlation of glycine consumption with sensitivity)", "setting": "NCI-60 cancer cell lines", "value": "not more sensitive"}
    ]},
    {"compound": "CN(Cc1cnc2nc(N)nc(N)c2n1)c1ccc(C(=O)N[C@@H](CCC(=O)O)C(=O)O)cc1", "note": "[methotrexate, Glutamic acid, N-[p-[[(2,4-diamino-6-pteridinyl)methyl]methylamino]benzoyl]-, L-(+)-(8CI)]", "values": [
      {"measurement": "sensitivity of glycine consuming cells to the agent (correlation of glycine consumption with sensitivity)", "setting": "NCI-60 cancer cell lines", "value": "uniquely sensitive"}
    ]},
    {"compound": "O=C1C=CC(=O)C=C1", "note": "[para-benzoquinone]", "values": [
      {"measurement": "inhibition of MTHFD2 enzyme in high throughput screen", "setting": "[3]", "value": "inhibit the enzyme"}
    ]}
  ]
}
